# Reference: ChEMBL document CHEMBL1177855, “Synthesis of some N-alkyl substituted urea derivatives as antibacterial and antifungal agents” (2010)
# System: Escherichia coli
# Experiment: Antibacterial activity against Escherichia coli ATCC 35218 after 24 hrs by MTT assay
# Type: functional
# Conditions: ATCC 35218, 24 h
row,SMILES,MIC [µg/mL]
1,CCN(CC)C(=O)Nc1ccc(Cl)cc1Cl,> 50
2,CC(C)c1ccc(NC(=O)N2CCOCC2)cc1,7.2
3,O=C(Nc1ccc(F)cc1)N1CCOCC1,1.6
4,O=C(Nc1ccccc1F)N1CCOCC1,2.1
5,O=C(Nc1ccc(F)cc1F)N1CCOCC1,4.2
6,O=C(Nc1ccc(Cl)cc1Cl)N1CCOCC1,12.5
7,O=C(Nc1ccc(Br)cc1)N1CCOCC1,3.1
8,O=C(Nc1ccc2c(c1)Cc1ccccc1-2)N1CCOCC1,> 50
9,O=C(Nc1ccccc1)N1CCOCC1,6.2
10,Cc1ccc(NC(=O)N2CCOCC2)cc1,7.2
11,O=C(Nc1ccccc1Cl)N1CCOCC1,3.1
12,COc1ccc(NC(=O)N2CCOCC2)cc1,7.5
13,O=C(Nc1cc(Cl)cc(Cl)c1)N1CCOCC1,12.5
14,O=C(N1CCOCC1)N1CCCc2ccccc21,> 50
15,O=C(Nc1cccc2cccnc12)N1CCOCC1,> 50
16,CCN(CC)C(=O)Nc1ccc(F)cc1,25
17,CCN(CC)C(=O)Nc1ccccc1F,25
18,CCN(CC)C(=O)Nc1ccc(F)cc1F,25
19,CCN(CC)C(=O)Nc1ccc(C(C)C)cc1,> 50
20,CCN(CC)C(=O)Nc1ccc(Br)cc1,25
21,NC[C@H]1O[C@H](O[C@H]2[C@H](O)[C@@H](O[C@H]3O[C@H](CO)[C@@H](O)[C@H](N)[C@H]3O)[C@H](N)C[C@@H]2N)[C@H](O)[C@@H](O)[C@@H]1O [KANAMYCIN],3.1
22,CC1(C)S[C@@H]2[C@H](NC(=O)Cc3ccccc3)C(=O)N2[C@H]1C(=O)O [PENICILLIN G],> 50

# System: Pseudomonas aeruginosa
# Experiment: Antibacterial activity against Pseudomonas aeruginosa ATCC 13525 after 24 hrs by MTT assay
# Type: functional
# Conditions: ATCC 13525, 24 h
row,SMILES,MIC [µg/mL]
1,CCN(CC)C(=O)Nc1ccc(Cl)cc1Cl,> 50
2,CC(C)c1ccc(NC(=O)N2CCOCC2)cc1,8
3,O=C(Nc1ccc(F)cc1)N1CCOCC1,6.2
4,O=C(Nc1ccccc1F)N1CCOCC1,12.5
5,O=C(Nc1ccc(F)cc1F)N1CCOCC1,> 50
6,O=C(Nc1ccc(Cl)cc1Cl)N1CCOCC1,50
7,O=C(Nc1ccc(Br)cc1)N1CCOCC1,37.1
8,O=C(Nc1ccc2c(c1)Cc1ccccc1-2)N1CCOCC1,31.5
9,O=C(Nc1ccccc1)N1CCOCC1,22
10,Cc1ccc(NC(=O)N2CCOCC2)cc1,> 50
11,O=C(Nc1ccccc1Cl)N1CCOCC1,> 50
12,COc1ccc(NC(=O)N2CCOCC2)cc1,12.5
13,O=C(Nc1cc(Cl)cc(Cl)c1)N1CCOCC1,8.8
14,O=C(N1CCOCC1)N1CCCc2ccccc21,8.2
15,O=C(Nc1cccc2cccnc12)N1CCOCC1,25.3
16,CCN(CC)C(=O)Nc1ccc(F)cc1,12.5
17,CCN(CC)C(=O)Nc1ccccc1F,> 50
18,CCN(CC)C(=O)Nc1ccc(F)cc1F,> 50
19,CCN(CC)C(=O)Nc1ccc(C(C)C)cc1,12.5
20,CCN(CC)C(=O)Nc1ccc(Br)cc1,> 50
21,NC[C@H]1O[C@H](O[C@H]2[C@H](O)[C@@H](O[C@H]3O[C@H](CO)[C@@H](O)[C@H](N)[C@H]3O)[C@H](N)C[C@@H]2N)[C@H](O)[C@@H](O)[C@@H]1O [KANAMYCIN],3.1
22,CC1(C)S[C@@H]2[C@H](NC(=O)Cc3ccccc3)C(=O)N2[C@H]1C(=O)O [PENICILLIN G],6.2

# System: Staphylococcus aureus
# Experiment: Antibacterial activity against Staphylococcus aureus ATCC 6538 after 24 hrs by MTT assay
# Type: functional
# Conditions: ATCC 6538, 24 h
row,SMILES,MIC [µg/mL]
1,CCN(CC)C(=O)Nc1ccc(Cl)cc1Cl,> 50
2,CC(C)c1ccc(NC(=O)N2CCOCC2)cc1,> 50
3,O=C(Nc1ccc(F)cc1)N1CCOCC1,> 50
4,O=C(Nc1ccccc1F)N1CCOCC1,> 50
5,O=C(Nc1ccc(F)cc1F)N1CCOCC1,> 50
6,O=C(Nc1ccc(Cl)cc1Cl)N1CCOCC1,> 50
7,O=C(Nc1ccc(Br)cc1)N1CCOCC1,> 50
8,O=C(Nc1ccc2c(c1)Cc1ccccc1-2)N1CCOCC1,> 50
9,O=C(Nc1ccccc1)N1CCOCC1,> 50
10,Cc1ccc(NC(=O)N2CCOCC2)cc1,> 50
11,O=C(Nc1ccccc1Cl)N1CCOCC1,> 50
12,COc1ccc(NC(=O)N2CCOCC2)cc1,> 50
13,O=C(Nc1cc(Cl)cc(Cl)c1)N1CCOCC1,> 50
14,O=C(N1CCOCC1)N1CCCc2ccccc21,> 50
15,O=C(Nc1cccc2cccnc12)N1CCOCC1,> 50
16,CCN(CC)C(=O)Nc1ccc(F)cc1,> 50
17,CCN(CC)C(=O)Nc1ccccc1F,> 50
18,CCN(CC)C(=O)Nc1ccc(F)cc1F,> 50
19,CCN(CC)C(=O)Nc1ccc(C(C)C)cc1,> 50
20,CCN(CC)C(=O)Nc1ccc(Br)cc1,> 50
21,NC[C@H]1O[C@H](O[C@H]2[C@H](O)[C@@H](O[C@H]3O[C@H](CO)[C@@H](O)[C@H](N)[C@H]3O)[C@H](N)C[C@@H]2N)[C@H](O)[C@@H](O)[C@@H]1O [KANAMYCIN],1
22,CC1(C)S[C@@H]2[C@H](NC(=O)Cc3ccccc3)C(=O)N2[C@H]1C(=O)O [PENICILLIN G],2

# System: Trichophyton rubrum
# Experiment: Antifungal activity against Trichophyton rubrum ATCC 10218 after 24 hrs by MTT assay
# Type: functional
# Conditions: ATCC 10218, 24 h
row,SMILES,MIC [µg/mL]
1,CCN(CC)C(=O)Nc1ccc(Cl)cc1Cl,> 50
2,CC(C)c1ccc(NC(=O)N2CCOCC2)cc1,20.7
3,O=C(Nc1ccc(F)cc1)N1CCOCC1,3.5
4,O=C(Nc1ccccc1F)N1CCOCC1,3.1
5,O=C(Nc1ccc(F)cc1F)N1CCOCC1,18.2
6,O=C(Nc1ccc(Cl)cc1Cl)N1CCOCC1,> 50
7,O=C(Nc1ccc(Br)cc1)N1CCOCC1,> 50
8,O=C(Nc1ccc2c(c1)Cc1ccccc1-2)N1CCOCC1,31.2
9,O=C(Nc1ccccc1)N1CCOCC1,> 50
10,Cc1ccc(NC(=O)N2CCOCC2)cc1,38.4
11,O=C(Nc1ccccc1Cl)N1CCOCC1,> 50
12,COc1ccc(NC(=O)N2CCOCC2)cc1,12.5
13,O=C(Nc1cc(Cl)cc(Cl)c1)N1CCOCC1,12.5
14,O=C(N1CCOCC1)N1CCCc2ccccc21,12.5
15,O=C(Nc1cccc2cccnc12)N1CCOCC1,40.8
16,CCN(CC)C(=O)Nc1ccc(F)cc1,32.6
17,CCN(CC)C(=O)Nc1ccccc1F,> 50
18,CCN(CC)C(=O)Nc1ccc(F)cc1F,> 50
19,CCN(CC)C(=O)Nc1ccc(C(C)C)cc1,> 50
20,CCN(CC)C(=O)Nc1ccc(Br)cc1,> 50
21,CC(=O)N1CCN(c2ccc(OCC3COC(Cn4ccnc4)(c4ccc(Cl)cc4Cl)O3)cc2)CC1 (stereo not given) [KETOCONAZOLE],3.9

# System: Bacillus subtilis
# Experiment: Antibacterial activity against Bacillus subtilis ATCC 6633 after 24 hrs by MTT assay
# Type: functional
# Conditions: ATCC 6633, 24 h
row,SMILES,MIC [µg/mL]
1,CCN(CC)C(=O)Nc1ccc(Cl)cc1Cl,> 50
2,CC(C)c1ccc(NC(=O)N2CCOCC2)cc1,> 50
3,O=C(Nc1ccc(F)cc1)N1CCOCC1,> 50
4,O=C(Nc1ccccc1F)N1CCOCC1,1.6
5,O=C(Nc1ccc(F)cc1F)N1CCOCC1,> 50
6,O=C(Nc1ccc(Cl)cc1Cl)N1CCOCC1,> 50
7,O=C(Nc1ccc(Br)cc1)N1CCOCC1,> 50
8,O=C(Nc1ccc2c(c1)Cc1ccccc1-2)N1CCOCC1,40.2
9,O=C(Nc1ccccc1)N1CCOCC1,> 50
10,Cc1ccc(NC(=O)N2CCOCC2)cc1,> 50
11,O=C(Nc1ccccc1Cl)N1CCOCC1,3.1
12,COc1ccc(NC(=O)N2CCOCC2)cc1,> 50
13,O=C(Nc1cc(Cl)cc(Cl)c1)N1CCOCC1,6.2
14,O=C(N1CCOCC1)N1CCCc2ccccc21,> 50
15,O=C(Nc1cccc2cccnc12)N1CCOCC1,38.7
16,CCN(CC)C(=O)Nc1ccc(F)cc1,6.2
17,CCN(CC)C(=O)Nc1ccccc1F,12.5
18,CCN(CC)C(=O)Nc1ccc(F)cc1F,12.5
19,CCN(CC)C(=O)Nc1ccc(C(C)C)cc1,> 50
20,CCN(CC)C(=O)Nc1ccc(Br)cc1,> 50
21,NC[C@H]1O[C@H](O[C@H]2[C@H](O)[C@@H](O[C@H]3O[C@H](CO)[C@@H](O)[C@H](N)[C@H]3O)[C@H](N)C[C@@H]2N)[C@H](O)[C@@H](O)[C@@H]1O [KANAMYCIN],0.4
22,CC1(C)S[C@@H]2[C@H](NC(=O)Cc3ccccc3)C(=O)N2[C@H]1C(=O)O [PENICILLIN G],1.6

# System: Aspergillus niger
# Experiment: Antifungal activity against Aspergillus niger ATCC 16404 after 24 hrs by MTT assay
# Type: functional
# Conditions: ATCC 16404, 24 h
row,SMILES,MIC [µg/mL]
1,CCN(CC)C(=O)Nc1ccc(Cl)cc1Cl,45.2
2,CC(C)c1ccc(NC(=O)N2CCOCC2)cc1,> 50
3,O=C(Nc1ccc(F)cc1)N1CCOCC1,> 50
4,O=C(Nc1ccccc1F)N1CCOCC1,> 50
5,O=C(Nc1ccc(F)cc1F)N1CCOCC1,> 50
6,O=C(Nc1ccc(Cl)cc1Cl)N1CCOCC1,> 50
7,O=C(Nc1ccc(Br)cc1)N1CCOCC1,> 50
8,O=C(Nc1ccc2c(c1)Cc1ccccc1-2)N1CCOCC1,> 50
9,O=C(Nc1ccccc1)N1CCOCC1,> 50
10,Cc1ccc(NC(=O)N2CCOCC2)cc1,> 50
11,O=C(Nc1ccccc1Cl)N1CCOCC1,> 50
12,COc1ccc(NC(=O)N2CCOCC2)cc1,> 50
13,O=C(Nc1cc(Cl)cc(Cl)c1)N1CCOCC1,> 50
14,O=C(N1CCOCC1)N1CCCc2ccccc21,12.5
15,O=C(Nc1cccc2cccnc12)N1CCOCC1,> 50
16,CCN(CC)C(=O)Nc1ccc(F)cc1,> 50
17,CCN(CC)C(=O)Nc1ccccc1F,> 50
18,CCN(CC)C(=O)Nc1ccc(F)cc1F,> 50
19,CCN(CC)C(=O)Nc1ccc(C(C)C)cc1,> 50
20,CCN(CC)C(=O)Nc1ccc(Br)cc1,23
21,CC(=O)N1CCN(c2ccc(OCC3COC(Cn4ccnc4)(c4ccc(Cl)cc4Cl)O3)cc2)CC1 (stereo not given) [KETOCONAZOLE],7.8
